Like-named read-outs stand apart in the source and are kept apart here.
How the values were obtained:
SKMEL5 = assay: Cell growth inhibition assay, SKMEL5 (melanoma); assay type: cell-based, Human; conditions: 3 days, read-out: Single agent IC50 (μM), mean ± STD
Experimental: (§1) All lines were kept in a humidified incubator at 37° C. in 95% air and 5% CO2. JIMT-1 is a cell line established from a tumor of a patient with trastuzumab-resistant breast cancer (Tanner et al, Mol Cancer Ther 2004; 3:1585-92).
(§2) All cells were cultured for a minimum of 72 hours prior to cell plating. Cells were seeded in a 96-well tissue culture plate (NUNC 136102) of RPMI media containing 10% FBS for all cell lines at 2,000 cells per well except KPL4, which was plated in DMEM containing 5% FBS at 500 cells per well. […] Cells were incubated in the presence of compounds for 3 days. ATP levels were determined by adding Cell Titer Glo® reagent (Promega) according to the manufacturer's protocol. Briefly, Cell Titer Glo® reagent was added to each plate, incubated for 20 minutes then the luminescent signal was read on the SpectraMax L plate reader with a 0.5 sec integration time.
(§3) Inhibition of cell growth was estimated after treatment with compound or a combination of compounds for three days and comparing the signal to cells treated with vehicle (DMSO). Cell growth was calculated relative to vehicle (DMSO) treated control wells. A concentration of the compound that inhibits 50% of control cell growth (IC50) was interpolated using nonlinear regression with the equation, y=(A+(B−A)/(1+(C/x)^D)))), where A is the minimum response (ymin), B is the maximum response (ymax), C is the inflection point of the curve (EC50) and D is the Hill coefficient. […]

BT474 [1] = assay: Cell apoptosis assay, DNA fragmentation, BT474; assay type: cell-based, Human; conditions: 48 hours, Roche Cell Death ELISA, combination at 2 to 1 molar ratio A:B (FIG. 2B)
Experimental: as §1
(§4) For investigation of the induction of apoptosis, cells were plated at 5,000 cells per well in a 96-well tissue culture plate and allowed to attach for approximately 24 hours. Forty-eight hours after treatment with compounds, levels of apoptosis were estimated using the Roche Cell Death ELISA kit (Cat. No. 11 774 425 001) following the instructions provided by the manufacturer.
(§5) FIG. 1. Dose response curves of cell growth inhibition in HCC1954, MDA-MB-175VII, CHL1 and BFTC-905.

NCI-H747 = assay: Cell growth inhibition assay, NCI-H747 (colorectal); assay type: cell-based; conditions: Homo sapiens, 72 h, 3 days, read-out: Single agent IC50 (μM), mean ± STD
Experimental: as §1, §2
(§6) Inhibition of cell growth was estimated after treatment with compound or a combination of compounds for three days and comparing the signal to cells treated with vehicle (DMSO). Cell growth was calculated relative to vehicle (DMSO) treated control wells. […]

HPAF-11 = assay: Cell growth inhibition assay, HPAF-11 (pancreatic); assay type: cell-based; conditions: Homo sapiens, 72 h, 3 days, read-out: Single agent IC50 (μM), mean ± STD
Experimental: as §1, §2, §6

MDA-MB-453 = assay: Cell growth inhibition assay, MDA-MB-453 (breast HER2+); assay type: cell-based; conditions: Homo sapiens, 72 h, 3 days, read-out: Single agent IC50 (μM), mean ± STD
Experimental: as §1, §2, §6

JimT-1 = assay: Cell growth inhibition assay, JimT-1 (breast HER2+, trastuzumab-resistant); assay type: cell-based, Human; conditions: for IC50: Homo sapiens, 72 h, JimT-1, 3 days, read-out: Single agent IC50 (μM), mean ± STD; for sensitivity to cell growth inhibition, in words: JIMT-1 HER2+ breast cancer line
Experimental: as §1, §2, §3

CHL1 = assay: Cell growth inhibition assay, CHL1 (melanoma); assay type: cell-based; conditions: Homo sapiens, CHL-1, 72 h, 3 days, read-out: Single agent IC50 (μM), mean ± STD
Experimental: as §1, §2, §6

[2] = tested on: three pancreatic cancer cell lines; assay: Cell growth inhibition assay, pancreatic lines; assay type: cell-based, Human; conditions: HPAF-11, Capan-1 and SUIT2
Experimental: as §1, §2, §6

SW403 = assay: Cell growth inhibition assay, SW403 (colorectal); assay type: cell-based; conditions: Homo sapiens, SW-403, 72 h, 3 days, read-out: Single agent IC50 (μM), mean ± STD
Experimental: as §1, §2, §6

647V = assay: Cell growth inhibition assay, 647V (bladder); assay type: cell-based; conditions: Homo sapiens, 72 h, 3 days, read-out: Single agent IC50 (μM), mean ± STD
Experimental: as §1, §2, §6

SUM149 = assay: Cell growth inhibition assay, SUM149 (breast HER2−); assay type: cell-based; conditions: Homo sapiens, SUM149, 72 h, 3 days, read-out: Single agent IC50 (μM), mean ± STD
Experimental: as §1, §2, §6

T84 = assay: Cell growth inhibition assay, T84 (colorectal); assay type: cell-based; conditions: Homo sapiens, 72 h, 3 days, read-out: Single agent IC50 (μM), mean ± STD
Experimental: as §1, §2, §6

NCI-H508 = assay: Cell growth inhibition assay, NCI-H508 (colorectal); assay type: cell-based; conditions: Homo sapiens, 72 h, 3 days, read-out: Single agent IC50 (μM), mean ± STD
Experimental: as §1, §2, §6

SUIT2 = assay: Cell growth inhibition assay, SUIT2 (pancreatic); assay type: cell-based; conditions: Homo sapiens, SUIT-2, 72 h, 3 days, read-out: Single agent IC50 (μM), mean ± STD
Experimental: as §1, §2, §6

BFTC-905 = assay: Cell growth inhibition assay, BFTC-905 (bladder); assay type: cell-based; conditions: Homo sapiens, 72 h, 3 days, read-out: Single agent IC50 (μM), mean ± STD
Experimental: as §1, §2, §6

BT474-J4 [3] = assay: Cell growth inhibition assay, BT474-J4 (breast HER2+, acquired resistance to Compound A); assay type: cell-based; conditions: Homo sapiens, 72 h, 3 days, read-out: Single agent IC50 (μM), mean ± STD
Experimental: as §1, §2, §6

KPL4 = assay: Cell growth inhibition assay, KPL4 (breast HER2+); assay type: cell-based; conditions: Homo sapiens, KPL4, 72 h, 3 days, read-out: Single agent IC50 (μM), mean ± STD
Experimental: All cells were cultured for a minimum of 72 hours prior to cell plating. […] Cells were incubated in the presence of compounds for 3 days.
Cell growth was calculated relative to vehicle (DMSO) treated control wells.
In general, a CI value <0.9, between 0.9 and 1.1, or >1.1 indicates synergy, additivity and antagonism, respectively. In general, the smaller the CI number, the greater is the strength of synergy.

Capan-1 = assay: Cell growth inhibition assay, Capan-1 (pancreatic); assay type: cell-based; conditions: Homo sapiens, 72 h, 3 days, read-out: Single agent IC50 (μM), mean ± STD
Experimental: as §1, §2, §6

SW780 = assay: Cell growth inhibition assay, SW780 (bladder); assay type: cell-based; conditions: Homo sapiens, 72 h, 3 days, read-out: Single agent IC50 (μM), mean ± STD
Experimental: as §1, §2, §6

[4] = tested on: five colorectal cancer cell lines; assay: Cell growth inhibition assay, colorectal lines; assay type: cell-based; conditions: Homo sapiens; span over the five colorectal cancer cell lines of Table 1; read-out: IC50 values, single agent
LS174T = assay: Cell growth inhibition assay, LS174T (colorectal); assay type: cell-based; conditions: Homo sapiens, 72 h, 3 days, read-out: Single agent IC50 (μM), mean ± STD
Experimental: as §1, §2, §6

MDAMB175VII = assay: Cell growth inhibition assay, MDAMB175VII (breast HER2−); assay type: cell-based; conditions: Homo sapiens, MDA-MB-175-VII, 72 h, 3 days, read-out: Single agent IC50 (μM), mean ± STD
Experimental: as §1, §2, §6

A375 S2 = assay: Cell growth inhibition assay, A375 S2 (melanoma); assay type: cell-based; conditions: Homo sapiens, A375-S2, 72 h, 3 days, read-out: Single agent IC50 (μM), mean ± STD
Experimental: as §1, §2, §6

HCC1954 = assay: Cell growth inhibition assay, HCC1954 (breast HER2+); assay type: cell-based; conditions: Homo sapiens, 72 h, 3 days, read-out: Single agent IC50 (μM), mean ± STD
Experimental: as §1, §2, §6

HCC2218 = assay: Cell growth inhibition assay, HCC2218 (breast HER2+); assay type: cell-based; conditions: Homo sapiens, HCC2218, 72 h, 3 days, read-out: Single agent IC50 (μM), mean ± STD
Experimental: as §1, §2, §6

AU565 = assay: Cell growth inhibition assay, AU565 (breast HER2+); assay type: cell-based; conditions: Homo sapiens, AU565, 72 h, 3 days, read-out: Single agent IC50 (μM), mean ± STD
Experimental: as §1, §2, §6

[5] = tested on: HER2 positive (HER2+) breast tumor lines; assay: Cell growth inhibition assay, text summary over HER2+ breast lines; assay type: cell-based; conditions: Homo sapiens; the HER2+ breast cancer lines listed in Table 1; read-out: IC50 as a single agent
Experimental: as §1, §2, §6

SKBR3 = assay: Cell growth inhibition assay, SKBR3 (breast HER2+); assay type: cell-based; conditions: Homo sapiens, SK-BR-3, 72 h, 3 days, read-out: Single agent IC50 (μM), mean ± STD
Experimental: as §1, §2, §6

HCC1419 = assay: Cell growth inhibition assay, HCC1419 (breast HER2+); assay type: cell-based; conditions: Homo sapiens, HCC1419, 72 h, 3 days, read-out: Single agent IC50 (μM), mean ± STD
Experimental: as §1, §2, §6

BT474-J4 [6] = assay: Cell apoptosis assay, DNA fragmentation, BT474-J4; assay type: cell-based, Human; conditions: 48 hours, Roche Cell Death ELISA, combination at 2 to 1 molar ratio A:B (FIG. 2B)
Experimental: as §1, §4, §5

BT474 [7] = assay: Cell growth inhibition assay, BT474 (breast HER2+); assay type: cell-based; conditions: Homo sapiens, BT-474, 72 h, 3 days, read-out: Single agent IC50 (μM), mean ± STD
Experimental: as §1, §2, §6

Row | IC50 (SKMEL5; Homo sapiens, SK-MEL-5, 72 h) [µM] | IC50 (NCI-H747) [µM] | IC50 (MDA-MB-453) [µM] | IC50 (CHL1) [µM] | IC50 (SW403) [µM] | IC50 (NCI-H508) [µM] | IC50 (BT474-J4 [3]) [µM] | IC50 (SW780) [µM] | IC50 [4] [nM] | Compound | apoptosis induction determined by DNA fragmentation (BT474 [1]) | IC50 (HPAF-11) [µM] | IC50 (JimT-1) [µM] | sensitivity to cell growth inhibition, in words (JimT-1) | sensitivity as single agents, in words [2] | IC50 (647V) [µM] | IC50 (T84) [µM] | IC50 (SUIT2) [µM] | IC50 (BFTC-905) [µM] | IC50 (KPL4) [µM] | IC50 (Capan-1) [µM] | also measured
1 | 4.74 ± 1.08 | 2.64 ± 1.75 | 4.48 ± 1.47 | 0.138 ± 0.004 | 5.36 ± 1.55 | 0.149 ± 0.205 | > 10 | 4.11 ± 1.39 | 149 to 7180 | CS(=O)(=O)CCNCc1ccc(-c2ccc3ncnc(Nc4ccc(OCc5cccc(F)c5)c(Cl)c4)c3c2)o1 [Compound A, N-{3-Chloro-4-[(3-fluorobenzyl)oxy]phenyl}-6-[5-({[2-(methanesulphonyl)ethyl]amino}methyl)-2-furyl]-4-quinazolinamine] | induced apoptosis | 10.5 ± 2.77 | > 10 | resistant | resistant | > 10 | 4.28 ± 1.35 | > 10 | 4.28 ± 0.073 | < 1 | > 10 | IC50 (SUM149): 4.73 ± 1.37 µM; IC50 (LS174T): 7.18 ± 3.93 µM; IC50 (MDAMB175VII): 0.146 ± 0.035 µM; IC50 (A375 S2): > 10 µM; IC50 (HCC1954): 2.41 ± 1.57 µM
2 | ≤ 0.003 | 0.003 ± 0.002 | > 1 | 0.461 ± 0.382 | 0.005 ± 0.004 | 0.019 ± 0.005 | > 1 | 0.07 ± 0.042 | 3 to 99 | CC(=O)Nc1cccc(-n2c(=O)n(C3CC3)c(=O)c3c(Nc4ccc(I)cc4F)n(C)c(=O)c(C)c32)c1 [Compound B, N-{3-[3-cyclopropyl-5-(2-fluoro-4-iodo-phenylamino)-6,8-dimethyl-2,4,7-trioxo-3,4,6,7-tetrahydro-2H-pyrido[4,3-d]pyrimidin-1-yl]phenyl}acetamide] | not active to induce apoptosis | 0.059 ± 0.03 | > 1 | resistant | sensitive | > 1 | 0.075 ± 0.039 | 0.196 ± 0.269 | 0.012 ± 0.003 | > 1 | 0.086 ± 0.007 | IC50 (SKMEL5): 0.003 µM; IC50 (HCC2218): > 1 µM; IC50 (AU565): > 1 µM; IC50 [5]: > 1000 nM; IC50 (SKBR3): > 1 µM; IC50 (HCC1419): > 1 µM; apoptosis induction determined by DNA fragmentation (BT474-J4 [6]): not active to induce apoptosis; IC50 (BT474 [7]): > 1 µM; IC50 (LS174T): 0.099 ± 0.053 µM; IC50 (HCC1954): > 1 µM

From patent publication US9180129B2, “Combination of lapatinib and trametinib” (NOVARTIS AG, priority 2010, dated 2015)
